Data reported in paper PMC8243516, “Inhibition of lysosomal phospholipase A2 predicts drug-induced phospholipidosis” (Journal of Lipid Research, 2021).
Where two headings read alike, the source gives them in different places.

Columns and labels:
LPLA2 = target: T1, LPLA2 (Mus musculus, UniProt Q8VEB4); assay: LPLA2 thermal stability measurement (SYPRO Orange Tm); format: binding
T1 construct: purchased Proteos Inc. (Kalamazoo, MI)
T1 sequence (Q8VEB4 34-412): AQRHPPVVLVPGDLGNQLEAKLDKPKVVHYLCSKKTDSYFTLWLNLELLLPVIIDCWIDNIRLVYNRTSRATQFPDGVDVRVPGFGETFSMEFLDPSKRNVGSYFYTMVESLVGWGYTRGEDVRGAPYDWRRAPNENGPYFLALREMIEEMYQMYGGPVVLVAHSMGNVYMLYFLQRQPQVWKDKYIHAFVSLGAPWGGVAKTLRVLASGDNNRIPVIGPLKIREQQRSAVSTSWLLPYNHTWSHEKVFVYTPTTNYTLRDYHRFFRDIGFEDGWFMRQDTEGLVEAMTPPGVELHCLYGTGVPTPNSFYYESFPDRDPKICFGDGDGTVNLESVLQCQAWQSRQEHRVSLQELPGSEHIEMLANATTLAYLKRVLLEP

[1] = target: T2, recombinant mouse LPLA2 (PLA2G15) (Mus musculus, UniProt Q8VEB4); assay: Transacylase activity of LPLA2 (1-O-acyl-N-acetylsphingosine synthase, cell-free liposome assay); format: biochemical
T2 construct: purchased Proteos Inc. (Kalamazoo, MI)
T2 sequence (Q8VEB4 34-412): T1 sequence (Q8VEB4 34-412)

[2] = cited from earlier work
[3] = LPLA2 dependent 1-O-acyl N-acetylsphingosine synthase activity, read-out: LPLA2 IC50
[4] = ref Pubchem and chEMBL database
[5] = 1-O-acyl N-acetylsphingosine synthase activity, pH 4.5, DOPC/sulfatide liposomes, read-out: LPLA2 IC50
[6] = ref Pubchem and chEMBL databases

SMILES: OC[C@H]1OC(O)[C@H](O)[C@@H](O)[C@@H]1O (mixture of isomers) [D-( ± )-glucose]
- (ΔTm)c-(ΔTm)d, difference in melting temperature of LPLA2 alone or in the presence of drug (LPLA2; N=3 ± SD): 0 °C

SMILES: Cl.NCCc1ccc(O)c(O)c1 [3-Hydroxy-tyramine hydrochloride]
- IC50 [1, 3]: 56.1 µM
- pKa (basic) [2, 4]: 9.27

SMILES: NCCc1cc(O)c(O)cc1O [6-Hydroxy-dopamine]
- IC50 [1, 3]: 88 µM
- pKa (basic) [2, 4]: 9.85

SMILES: Nc1c(Br)cc(Br)cc1CN[C@H]1CC[C@H](O)CC1 [Ambroxol, 2-amino-3,5-dibromo-N-(trans-4-hydroxycyclohexyl) benzylamine]
- (ΔTm)c-(ΔTm)d, difference in melting temperature of LPLA2 alone or in the presence of drug (LPLA2; N=3 ± SD): 0.68 ± 0.5 °C
- IC50 [1, 5]: 59 µM
- pKa (basic) [2, 6]: 9.01

SMILES: CC(C)(C#N)c1cc(Cn2cncn2)cc(C(C)(C)C#N)c1 [Anastrozole, 2;2″-[5-(1H-1;2;4-Triazol-1-ylmethyl)-1,3-phenylene]bis(2-methyl-propiononitrile)]
- (ΔTm)c-(ΔTm)d, difference in melting temperature of LPLA2 alone or in the presence of drug (LPLA2; N=3 ± SD): -1.05 ± 0.1 °C
- IC50 [1, 5]: 4.82 µM
- pKa (basic) [2, 6]: 2

SMILES: CN1[C@@H]2CC[C@H]1C[C@@H](OC(=O)C(CO)c1ccccc1)C2 (some centres unmarked) [Atropine]
- IC50 ([1]; LPLA2 IC50): 1870 µM

SMILES: CC(Cc1cccc(C(F)(F)F)c1)NCCOC(=O)c1ccccc1 (centres unmarked) [Benfluorex, N-(1-methyl-2-(3-[trifluoromethyl]-phenyl)ethyl)amino ethanol benzoate ester]
- IC50 [1, 5]: 19.9 µM
- pKa (basic) [2, 6]: 9.14

SMILES: CN1[C@@H]2CC[C@H]1C[C@@H](OC(c1ccccc1)c1ccccc1)C2 [Benztropine]
- pKa (basic) [2, 4]: 9.54

SMILES: C(=Cc1ccccc1)CN1CCN(C(c2ccccc2)c2ccccc2)CC1 [Cinnarizine, 1-(diphenylmethyl)-4-(3-phenylprop-2-en-1-yl) piperazine]
- pKa (basic) [2, 6]: 8.44

SMILES: CCN(CC)CCOc1ccc(C(=C(Cl)c2ccccc2)c2ccccc2)cc1 [Clomifene]
- pKa (basic) [2, 4]: 9.31

SMILES: O=C(O)Cc1ccccc1Nc1c(Cl)cccc1Cl [Diclofenac]
- (ΔTm)c-(ΔTm)d, difference in melting temperature of LPLA2 alone or in the presence of drug (LPLA2; N=3 ± SD): 1.70 ± 0.5 °C
- IC50 [1, 3]: 7.2 µM

SMILES: CC(C)N(CCC(C(N)=O)(c1ccccc1)c1ccccn1)C(C)C (centres unmarked) [Disopyramide]
- (ΔTm)c-(ΔTm)d, difference in melting temperature of LPLA2 alone or in the presence of drug (LPLA2): 0 °C

SMILES: Fc1ccc(C(c2ccc(F)cc2)N2CCN(C/C=C/c3ccccc3)CC2)cc1 [Flunarizine, 1-[bis(4-fluorophenyl)methyl]-4-[(2E)-3-phenylprop-2-en-1-yl]piperazine]
- pKa (basic) [2, 6]: 7.6

SMILES: NCC1(CC(=O)O)CCCCC1 [Gabapentin]
- IC50 [1, 3]: 37.4 µM
- pKa (basic) [2, 4]: 9.91

SMILES: COc1ccc2c(c1)[nH]c1c(C)nccc12 [Harmine]
- (ΔTm)c-(ΔTm)d, difference in melting temperature of LPLA2 alone or in the presence of drug (LPLA2; N=3 ± SD): -1.94 ± 0.9 °C
- IC50 ([1]; LPLA2 IC50, LPLA2 dependent 1-O-acyl N-acetylsphingosine synthase activity): 633 µM

SMILES: CN(C)C(=O)C(CCN1CCC(O)(c2ccc(Cl)cc2)CC1)(c1ccccc1)c1ccccc1 [Loperamide, 4-[4-(4-chlorophenyl)-4-hydroxypiperidin-1-yl]-N,N-dimethyl-2,2-diphenylbutanamide]
- pKa (basic) [2, 6]: 9.41

SMILES: Cc1ccccc1C(OCCN(C)C)c1ccccc1 (centres unmarked) [Orphenadrine]
- pKa (basic) [2, 4]: 8.87

SMILES: CN1CCN(CCCN2c3ccccc3Sc3ccc(Cl)cc32)CC1 [Prochlorperazine]
- pKa (basic) [2, 4]: 8.39

SMILES: OC(CCN1CCCC1)(c1ccccc1)C1CCCCC1 (centres unmarked) [Procyclidine]
- (ΔTm)c-(ΔTm)d, difference in melting temperature of LPLA2 alone or in the presence of drug (LPLA2; N=3 ± SD): 0.51 ± 0.0 °C
- pKa (basic) [2, 4]: 13.84

SMILES: CCN(CC)C(C)CN1c2ccccc2Sc2ccccc21 (centres unmarked) [Profenamine, diethyl[1-(10H-phenothiazin-10-yl)propan-2-yl]amine]
- IC50 [1, 5]: 8.7 µM
- pKa (basic) [2, 6]: 9.6

SMILES: CCCNCC(O)COc1ccccc1C(=O)CCc1ccccc1 (centres unmarked) [Propafenone, 1-{2-[2-hydroxy-3-(propylamino)propoxy]phenyl}-3-phenylpropan-1-one]
- IC50 [1, 5]: 48.2 µM

SMILES: CSC(=N)N [S-methylisothiourea]
- (ΔTm)c-(ΔTm)d, difference in melting temperature of LPLA2 alone or in the presence of drug (LPLA2; N=3 ± SD): -2.05 ± 0.6 °C

SMILES: Cc1ccc(C(=O)Nc2ccc(S(=O)(=O)O)c3cc(S(=O)(=O)O)cc(S(=O)(=O)O)c23)cc1NC(=O)c1cccc(NC(=O)Nc2cccc(C(=O)Nc3cc(C(=O)Nc4ccc(S(=O)(=O)O)c5cc(S(=O)(=O)O)cc(S(=O)(=O)O)c45)ccc3C)c2)c1 [Suramin, 8-{4-methyl-3-[3-({[3-({2-methyl-5-[(4,6,8-trisulfonaphthalen-1yl)carbamoyl]phenyl}carbamoyl)phenyl]carbamoyl}amino)benzamido]benzamido}naphthalene-1,3,5-trisulfonic acid]
- (ΔTm)c-(ΔTm)d, difference in melting temperature of LPLA2 alone or in the presence of drug (LPLA2; N=3 ± SD): 0 °C
- IC50 [1, 5]: 35.5 µM

SMILES: CSc1ccc2c(c1)N(CCC1CCCCN1C)c1ccccc1S2 (centres unmarked) [Thioridazine, 10-[2-(1-methylpiperidin-2-yl)ethyl]-2-(methylsulfanyl) -10H-phenothiazine]
- pKa (basic) [2, 6]: 8.93

SMILES: O=c1ccn([C@@H]2O[C@H](CO)[C@@H](O)[C@H]2O)c(=O)[nH]1 [Uridine]
- pKa (basic) [2, 4]: -3

SMILES: CC[C@]1(O)C[C@@H]2CN(CCc3c([nH]c4ccccc34)[C@@](C(=O)OC)(c3cc4c(cc3OC)N(C)[C@H]3[C@@](O)(C(=O)OC)[C@H](OC(C)=O)[C@]5(CC)C=CCN6CC[C@]43[C@@H]65)C2)C1 [Vinblastine, methyl (1R,9R,10S,11R,12R,19R)-11-(acetyloxy)-12-ethyl-4-[(13S,15R,17S)-17-ethyl-17-hydroxy-13-(methoxycarbonyl)-1,11-diazatetracyclo [13.3.1.0ˆ[1].0ˆ[1]]nonadeca-4(12),5(10),6,8-tetraen-13-yl]-10-hydroxy-5-methoxy-8-methyl-8,16-diazapentacyclo [10.6.1.0ˆ[1].0ˆ[1] .0ˆ[3]] nonadeca-2,4,6,13-tetraene-10-carboxylate]
- (ΔTm)c-(ΔTm)d, difference in melting temperature of LPLA2 alone or in the presence of drug (LPLA2; N=3 ± SD): -0.24 ± 0.0 °C
- IC50 [1, 5]: 2120 µM
- LPLA2 inhibition (in words) ([1]; acyl transferase activity): millimolar concentrations

SMILES: O=C1C(O)=C([C@H]2CC[C@H](c3ccc(Cl)cc3)CC2)C(=O)c2ccccc21 [atovaquone]
- (ΔTm)c-(ΔTm)d, difference in melting temperature of LPLA2 alone or in the presence of drug (LPLA2; N=3 ± SD): -0.17 ± 0.1 °C

SMILES: CC(C)COCC(CN(Cc1ccccc1)c1ccccc1)N1CCCC1 (centres unmarked) [bepridil]
- (ΔTm)c-(ΔTm)d, difference in melting temperature of LPLA2 alone or in the presence of drug (LPLA2; N=3 ± SD): 2.10 ± 0.6 °C

SMILES: CC(C)C[C@H](N)C(=O)O [l-leucine]
- (ΔTm)c-(ΔTm)d, difference in melting temperature of LPLA2 alone or in the presence of drug (LPLA2; N=3 ± SD): 1.86 ± 0.6 °C

SMILES: CN1CCc2c(c3ccccc3n2Cc2ccccc2)C1 [mebhydroline]
- (ΔTm)c-(ΔTm)d, difference in melting temperature of LPLA2 alone or in the presence of drug (LPLA2; N=3 ± SD): 0.84 ± 0.1 °C

SMILES: CCN(CC)CCc1nc(-c2ccccc2)no1 [oxolamine]
- (ΔTm)c-(ΔTm)d, difference in melting temperature of LPLA2 alone or in the presence of drug (LPLA2; N=3 ± SD): -0.89 ± 0.0 °C

SMILES: O=c1ccn([C@@H]2O[C@H](CO)[C@@H](O)[C@H]2O)c(=O)[nH]1 [uridine]
- (ΔTm)c-(ΔTm)d, difference in melting temperature of LPLA2 alone or in the presence of drug (LPLA2; N=3 ± SD): -1.71 ± 0.1 °C
